# Earlier results as cited in patent US20240327432A1, “THIOPHENE-PHENOTHIAZINE COMPOUNDS AND SYNTHESIS METHOD THEREOF, AS WELL AS APPLICATION THEREOF IN PREPARATION OF PHOTOTHERAPY MEDICINES” (Guangzhou Medical University, priority 2023, published 2024).
# Tested on: 4T1 subcutaneous tumors
# Details: comparison from prior knowledge; cited from earlier work
substance,measurement,value
porfimer sodium,metabolic time in the bodies,about ten weeks
